How the values were obtained:
HBsAg = HBsAg (Hepatitis B virus genotype D subtype ayw, UniProt P03138); assay: Activity measured diagnostically with an immunoassay; assay type: binding
Text: (§1) In certain embodiments, the anti-HBV antibody is HBC34 or an engineered variant thereof. HBC34 are human antibodies against HBsAg with high neutralizing activity. […] The activity of HBC34, as measured diagnostically with an immunoassay, is 5000 IU/mg. As a comparison, the activity of HBIG is ˜1 IU/mg.

antigenic loop of HBsAg = assay: Binding of HBC34 to HBsAg antigenic loop, genotypes and mutants; design: species or system HBV
Text: as §1

chronic HBV infection [1] = details: patients with chronic HBV infection; cited from earlier work
HBV = assay: Preclinical pharmacology of SIRNA01 against HBV
Text: In some embodiments, the siRNA that targets HBV mRNA is SIRNA01. SIRNA01 is a synthetic, chemically modified siRNA targeting HBV RNA with a covalently attached triantennary N-acetyl-galactosamine (GalNAc) ligand that allows for specific uptake by hepatocytes. […] An SIRNA can have multiple antiviral effects, including degradation of the pgRNA, thus inhibiting viral replication, and degradation of all viral mRNA transcripts, thereby preventing expression of viral proteins. This may result in the return of a functional immune response directed against HBV, either alone or in combination with other therapies. The ability of SIRNA01 to reduce HBsAg-containing noninfectious subviral particles also distinguishes it from currently available treatments.
SIRNA01 targets and inhibits expression of an mRNA encoded by an HBV genome according to NCBI Reference Sequence NC_003977.2 (GenBank Accession No. GI:21326584) (SEQ ID NO:1). More specifically, SIRNA01 targets an mRNA encoded by a portion of the HBV genome comprising the sequence […] (SEQ ID NO:2), which corresponds to nucleotides 1579-1597 of SEQ ID NO:1. Because transcription of the HBV genome results in polycistronic, overlapping RNAs, SIRNA01 results in significant inhibition of expression of most or all HBV transcripts.

chronic HBV infection [2] = details: PEG-IFNα add-on therapy; cited from earlier work
chronic HBV infection [3] = details: after 48 weeks of therapy; cited from earlier work
chronic HBV infection [4] = details: cited from earlier work

## HBC34: human antibody against HBsAg with high neutralizing activity; HC SEQ ID NO:56, LC SEQ ID NO:58
HBsAg
  activity, as measured diagnostically with an immunoassay: 5000 IU/mg
Antigenic loop of HBsAg
  HBV genotypes and mutants recognized: all 10 HBV genotypes and 18 mutants
  affinity of binding to the antigenic loop of HBsAg: pM range

## SIRNA01: synthetic, chemically modified GalNAc-conjugated siRNA targeting HBV RNA; sense strand SEQ ID NO:5, antisense strand SEQ ID NO:6 (sense GUGUGCACUUCGCUUCACA; antisense UGUGAAGCGAAGUGCACACUU; GalNAc-conjugated, chemically modified, pattern not given here)
Chronic HBV infection [1]
  reduction in HBsAg when administered individually: substantial reductions in HBsAg
HBV
  pharmacological activity against HBV genotypes: pharmacologically active against HBV genotypes A through J
HBV; preclinical models
  effect in preclinical models: inhibit viral replication, translation, and secretion of HBsAg

## peginterferon-alfa-2a [PEG-IFNα]
Chronic HBV infection [2]
  mean HBsAg reduction at Week 24: 0.57 log10 IU/mL
Chronic HBV infection [3]
  percentage of patients with long-term viral control: < 10%
Chronic HBV infection [4]; PEG-IFNα 180 g administered weekly for 48-52 weeks, approximately
  HBsAg loss, patients overall: ≤ 10%
Chronic HBV infection [4]; baseline HBsAg less than approximately 1,000-1,500 IU/mL, with or without an NRTI
  rate of HBsAg loss, subset with low baseline HBsAg: 20-40%
